Laboratory results: patent US11584712B2, “Alkylamine-substituted perthiocarbamates as dual precursors to hydropersulfide and carbonyl sulfide” (The Johns Hopkins University, priority 2020, dated 2023)
Where “and” joins values, the source holds several entries; their conditions need not be identical. Equal entries are not always repeated.

Columns and labels:
[1] = RSSH generation and quantification of cyclic ureas by UPLC-MS with HPE-IAM or NEM trap; assay type: physicochemical; details: precursor 10 μM, pH 7.4 ammonium bicarbonate buffer; for yield of cyclic urea byproduct: HPE-IAM 500 μM (50 equiv.), 37° C.; for cyclic urea byproduct formation: HPE-IAM 500 μM, 37° C. (7a 15 min, 7c 7 h)
Protocol: Precursor 1a was dissolved in DMSO to afford a 1 mM stock solution. Similarly, HPE-IAM and N-ethyl maleimide (NEM) were independently dissolved in DMSO to obtain 50 mM stock solutions. To a 20 mL scintillation vial, HPE-IAM or NEM (30 μL, 50 mM) was added in pH 7.4 ammonium bicarbonate buffer (2.94 mL) containing the DTPA (100 μM). The resulting solution was pre-incubated at 37° C. for 10 min. Precursor 1a (30 μL, 1 mM) was then added into the mixture and incubated for 15 min at 37° C. An aliquot of the reaction mixture (500 μL) was withdrawn, 4-hydroxyphenylacetamide (10 μM) was added as internal standard, and analyzed using UPLC-MS as follows: Mobile phase: 0-1 min 90% water+0% ACN+10% formic acid (0.1%); 1-7.5 min gradient up to 10% water+80% ACN+10% formic acid (0.1%); 7.5-8.4 min 10% water+80% ACN+10% formic acid (0.1%); 8.4-8.5 min gradient up to 90% water+0% ACN+10% formic acid (0.1%), 8.5-10 min 90% water+0% ACN+10% formic acid (0.1%). Flow rate=0.3 mL/min. […] These studies were conducted at least in triplicate and representative spectra are presented.
Precursors 7a-d (10 μM) were independently incubated with HPE-IAM (500 μM) in pH 7.4 ammonium bicarbonate buffer (50 mM) containing DTPA (100 μM) at 37° C. The reaction mixture (500 μL) was analyzed using UPLC-MS. To quantify 2a-d generated from these precursors, a calibration curve of each individual cyclic urea with known concentrations was independently generated.
Precursor 1a was dissolved in DMSO to afford a 1 mM stock solution. Similarly, HPE-IAM was dissolved in DMSO to obtain a 50 mM stock solution. To a 20 mL scintillation vial, HPE-IAM (30 μL, 50 mM) was added in pH 7.4 ammonium bicarbonate buffer (2.94 mL) containing the DTPA (100 μM). The resulting solution was pre-incubated at 37° C. for 10 min. Precursor 1a (30 μL, 1 mM) was then added into the mixture and incubated for 15 min at 37° C. An aliquot of the reaction mixture (500 μL) was withdrawn and analyzed using UPLC-MS as follows: Mobile phase: 0-1 min 90% water+0% ACN+10% formic acid (0.1%); 1-7.5 min gradient up to 10% water+80% ACN+10% formic acid (0.1%); 7.5-8.4 min 10% water+80% ACN+10% formic acid (0.1%); 8.4-8.5 min gradient up to 90% water+0% ACN+10% formic acid (0.1%), 8.5-10 min 90% water+0% ACN+10% formic acid (0.1%). Flow rate=0.3 mL/min. The mass signals for product of RSSH trapping with HPE-IAM were obtained via deconvolution using MassLynx 4.1 software. These studies were conducted at least in triplicate and representative spectra are presented.
Precursors 7a-d (10 μM) were independently incubated with HPE-IAM (500 μM) in pH 7.4 ammonium bicarbonate buffer (50 mM) containing DTPA (100 μM) at 37° C. This reaction mixture was analyzed by UPLC-MS as follows: Mobile phase: 0-1 min 90% water+0% ACN+10% formic acid (0.1%); 1-7.5 min gradient up to 10% water+80% ACN+10% formic acid (0.1%); 7.5-8.4 min 10% water+80% ACN+10% formic acid (0.1%); 8.4-8.5 min gradient up to 90% water+0% ACN+10% formic acid (0.1%), 8.5-10 min 90% water+0% ACN+10% formic acid (0.1%). Flow rate=0.3 mL/min. To quantify 2a-d generated from these precursors, a calibration curve of each individual cyclic urea with known concentrations was independently generated.

[2] = Kinetics of decomposition of 7a and formation of 2a and 9 by UPLC-MS; assay type: physicochemical; details: 7a 20 μM, HPE-IAM 1 mM, ammonium bicarbonate buffer 50 mM with DTPA
Protocol: An aliquot of the reaction mixture was withdrawn at the specified time and quenched with 1% formic acid. The curves are the calculated best fits to a single-exponential function. The pseudo-first order rate constants for 7a, 9 and 2a are 0.59±0.02, 0.57±002, and 0.58±0.03 min^−1, respectively;

[3] = tested on: H9c2 cells; experiment: H9c2 cell protection from H2O2-mediated oxidative stress, Cell Counting Kit-8 (CCK-8); assay type: cell-based, rat; details: 2 h pretreatment (7b 50, 100, 150 μM; byproduct 150 μM), then H2O2 200 μM 2 h
Protocol: Cells were seeded at a density of 5×10^3 cells/well. After 24 h, precursor 7b or byproduct 2b was added at 20 μL volumes using DMSO:H2O (<0.01% DMSO as the vehicle). Cells were incubated for 2 h before media was removed and the cells gently washed with PBS (pH 7.4). Then, 180 μL of fresh media and 20 μL H2O2 diluted into H2O were added and cells were incubated for an additional 2 h. At the completion of H2O2 exposure, each well is carefully washed 3 times with PBS (pH 7.4) before adding 100 μL of media, without-FBS, containing 10% v/v CCK-8 (Dojindo) and incubated for 3 h prior to obtaining absorbance values at 450 nm. The relative % viability was calculated as 100 times the ratio of the Abs450 (pretreated, H2O2-exposed) over Abs450 (vehicle-treated, non H2O2-exposed).

[4] = RSSH generation in the presence of glutathione by UPLC-MS; assay type: physicochemical
Protocol: The reaction mixture was quenched with 1% formic acid and analyzed by UPLC-MS. Under these conditions, 42±1 μM of 2b formation is observed. RSSH-derived symmetrical dialkyl polysulfide labeled as S3 and S4 (R^1SSnSR^1, n=1-2), and unsymmetrical dialkyl polysulfide labeled as ′S2 to ′S4 (R^1SSnSR^3, n=0-2) formation are observed. 4-Hydroxyphenyl acetamide, labeled as asterisk, is used as internal standard in these experiments;

In the case of “3-(((3-acetamido-4-methoxy-2-methyl-4-oxobutan-2-yl)disulfannecarbonyl)(methyl)amino)-N-methylpropan-1-aminium [Precursor 7c]”, the “yield of cyclic urea byproduct” value [1] was 88% and the “cyclic urea byproduct formation” value [1] was 8.8 ± 0.2 µM.
With `CNCCN(C)C(=O)SSC(C)(C)C(NC(C)=O)C(=O)OC` (stereo not shown) [Precursor 7a, 2-(((3-acetamido-4-methoxy-2-methyl-4-oxobutan-2-yl)disulfannecarbonyl)(methyl)amino)-N-methylethan-1-aminium] the “yield of cyclic urea byproduct” value [1] was 87%, the “cyclic urea byproduct formation” value [1] was 8.7 ± 0.4 µM and the “pseudo-first order rate constant of RSS-HPE-AM 9 formation” value [2] was 0.58 ± 0.02 min⁻¹ and 0.57 ± 002 min⁻¹. The “pseudo-first order rate constant of byproduct 2a formation” value [2] was 0.57 ± 0.02 min⁻¹ and 0.58 ± 0.03 min⁻¹ and the “pseudo-first order rate constant of precursor decomposition” value [2] was 0.59 ± 0.02 min⁻¹.
In the case of `COC(=O)C(NC(C)=O)C(C)(C)SSC(=O)N(C)CCN` (stereo not shown) [Precursor 7b, 2-(((3-acetamido-4-methoxy-2-methyl-4-oxobutan-2-yl)disulfannecarbonyl)(methyl)amino)ethan-1-aminium], the “protection against H2O2-mediated toxicity (CCK-8 viability)” value [3] was “dose-dependent attenuation”, the “byproduct 2b formation” value ([4]; 7b 100 μM, glutathione 500 μM, pH 7.4 ammonium bicarbonate 50 mM with DTPA, 37° C., 45 min) was 42 ± 1 µM and the “yield of byproduct 2b” value ([4]; in the presence of GSH, pH 7.4) was 42%.
